Holding throughout (experiment): DTP human tumour cell line panel, 48 h
Assay [1] relates to 786-0.
Assay [2] has as its system CAKI-1.
Assay [3] has as its system HCT-15.
For assay [4], the system named is HOP-92.
In assay [5] the test system is K562.
The test system of assay [6] is KM12.
Assay [7] concerns MOLT-4.
Assay [8] concerns Malme-3M.
Assay [9] relates to NCI-H460.
For assay [10], the system named is NCI-H522.
Assay [11] concerns OVCAR-3.
For assay [12], the system named is RXF 393.
Assay [13] has as its system SF-268.
Assay [14] has as its system SF-539.
For assay [15], the system named is SK-MEL-28.
Assay [16] relates to SN12C.
In assay [17] the test system is SNB-19.
For assay [18], the system named is SW-620.
For assay [19], the system named is U-251.

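Each compound was tested at five concentrations against cells in 96-well plates for 48 hours. At the GI50, growth is halved.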 Activity calls are given as the source filed them. Cut-off read from the data, not from the text of the source: active = GI50 up to about 1.1 µM and inactive = higher.

What is called GI50 is the concentration at which growth is held to half of that of the control.

In the case of `O=C(Nc1nccs1)c1cc(C2=CC=CC([N+](=O)[O-])C=C2)nc(S)n1` (stereo not drawn), the GI50 in [1] is > 100 µM (inactive); in assay [2], > 100 µM (inactive); in assay [3] it was above 100 µM; in [4] it was > 100 µM (inactive); in assay [5], > 100 µM (inactive); in assay [6], > 100 µM (inactive). For the same molecule, the GI50 in assay [7], in assay [8], in assay [9], in assay [10], in assay [11] and in [12] was > 100 µM (inactive) throughout. The GI50 in assay [13], in assay [14], in [15], in [16], in assay [17] and in assay [18] was > 100 µM (inactive) in each case. Also, the GI50 in assay [19] was > 100 µM (inactive).
Consider `O=C(CC(=O)C1CCOC1=O)C(=O)Nc1ccc(Cl)cc1Cl` (stereo not drawn), for which the GI50 in assay [1] was > 100 µM (inactive); in assay [2], > 100 µM (inactive); in assay [3], above 100 µM; in assay [4], > 100 µM (inactive); in assay [5], > 100 µM (inactive); in [6], > 100 µM (inactive). The GI50 in [8], in assay [9], in assay [10], in [11], in [12] and in assay [13] was > 100 µM (inactive) each time. In addition, the GI50 in assay [14], in assay [15], in [16], in assay [17], in assay [18] and in [19] was > 100 µM (inactive) throughout.
In the case of `CCOc1ccccc1NC(=O)CCC(=O)OC`, the GI50 in assay [1] was > 100 µM (inactive); in [2] it was > 100 µM (inactive); in assay [3], above 74.5 µM; in assay [4], > 100 µM (inactive); in assay [5], > 56.2 µM (inactive); in assay [6], > 100 µM (inactive). The GI50 in assay [7], in assay [8], in assay [9], in assay [10], in [11] and in assay [12] was > 100 µM (inactive) each time. In addition, the GI50 in [13] was > 100 µM (inactive); in [15], > 100 µM (inactive); in assay [16] it was > 100 µM (inactive); in assay [17] it was > 100 µM (inactive); in assay [18] it was > 42.1 µM (inactive); in [19], > 49.9 µM (inactive).
Take `C/C=C/C1(C)/C(=N\O)C(C)(CCC)C(=O)N1O` (stereo not drawn): the GI50 is > 100 µM (inactive) in [1]; > 100 µM (inactive) in [2]; above 100 µM in [3]; > 100 µM (inactive) in assay [4]; > 100 µM (inactive) in assay [5]; > 100 µM (inactive) in assay [6]. In addition, the GI50 in assay [7], in assay [8], in assay [9], in assay [10], in [11] and in [12] was > 100 µM (inactive) each time. Further, the GI50 in [14], in assay [15], in assay [16], in [17], in assay [18] and in assay [19] was > 100 µM (inactive) each time.
Consider `CCN(CC)c1ccc(C(=O)c2ccccc2C(=O)O)c(O)c1`, for which the GI50 in [1] is > 100 µM (inactive); in assay [2], > 100 µM (inactive); in assay [3], above 100 µM; in assay [4] it was > 100 µM (inactive); in [5], > 100 µM (inactive); in assay [6], > 100 µM (inactive). The GI50 in assay [7] was > 100 µM (inactive); in assay [8] it was > 100 µM (inactive); in assay [9], > 100 µM (inactive); in assay [10] it was 42.9 µM (inactive); in assay [11] it was > 100 µM (inactive); in assay [12], > 100 µM (inactive). The GI50 in assay [13], in [14], in assay [15], in assay [16], in assay [17] and in assay [18] was > 100 µM (inactive) throughout. For the same molecule, the GI50 in assay [19] is > 100 µM (inactive).
As for `O=C(Nc1ccc(Cl)c(Cl)c1)C(=O)C(C(=O)c1ccccc1-c1ccccc1)C1OC(=O)c2ccccc21` (stereo not drawn), the GI50 in assay [1] was 11.2 µM (inactive); in assay [4] it was 12.9 µM (inactive); in [5] it was 21.5 µM (inactive); in assay [6], 14.7 µM (inactive); in [7], 14 µM (inactive); in assay [8], 8.55 µM (inactive). In addition, the GI50 in assay [9] is 19.9 µM (inactive); in [10], 6.56 µM (inactive); in [11] it was 13.1 µM (inactive); in [12], 8.15 µM (inactive); in [13], 15.8 µM (inactive); in [14], 10.1 µM (inactive). For the same molecule, the GI50 in [15] was > 100 µM (inactive); in assay [18], 19 µM (inactive); in assay [19], 9.1 µM (inactive).
Regarding `CCCCCCCCCCCCCS(=O)(=O)O`, the GI50 in [1] was > 100 µM (inactive); in [3] it was above 100 µM; in assay [4], > 100 µM (inactive); in assay [6], > 100 µM (inactive); in [8] it was > 100 µM (inactive); in [9], > 100 µM (inactive). Also, the GI50 in [10], in assay [11], in assay [12], in assay [13], in assay [14] and in assay [15] was > 100 µM (inactive) in each case. Further, the GI50 in assay [16], in assay [17], in [18] and in assay [19] was > 100 µM (inactive) in each case.
On to `COc1cc(CCc2ccc(OC(C)=O)cc2)cc(OC)c1OC`, for which the GI50 was > 100 µM (inactive) in [1]; > 100 µM (inactive) in assay [2]; above 100 µM in assay [3]; 49 µM (inactive) in assay [4]; 63.8 µM (inactive) in [5]; > 100 µM (inactive) in [6]. Moreover, the GI50 in [7] was > 100 µM (inactive); in [8], > 100 µM (inactive); in assay [9] it was > 100 µM (inactive); in assay [10] it was 52 µM (inactive); in assay [11], > 100 µM (inactive); in assay [12], > 100 µM (inactive). Further, the GI50 in [13], in assay [14], in [15], in [16], in assay [17] and in [18] was > 100 µM (inactive) each time. In addition, the GI50 in assay [19] was > 100 µM (inactive).
Consider `Cc1ccc(NC(=O)C2C(=O)C(=O)N(c3ccc(C)cc3)C2=O)cc1` (stereo not drawn), for which the GI50 in [1] was > 100 µM (inactive); in assay [3], above 100 µM; in [4], > 100 µM (inactive); in assay [5] it was > 100 µM (inactive); in assay [6], > 100 µM (inactive); in [7] it was > 100 µM (inactive). Also, the GI50 was > 100 µM (inactive) in [8]; > 100 µM (inactive) in assay [9]; > 100 µM (inactive) in assay [10]; 72.1 µM (inactive) in [12]; > 100 µM (inactive) in assay [13]; > 100 µM (inactive) in assay [14]. In addition, the GI50 was > 10 µM (inactive) in assay [15]; > 100 µM (inactive) in assay [16]; > 100 µM (inactive) in assay [17]; > 100 µM (inactive) in [18]; 99.3 µM (inactive) in [19].
Regarding `C/C(CC(=O)Nc1cccc(Cl)c1C)=N\NC(N)=S`, the GI50 in [1] was > 100 µM (inactive); in [4], 30.1 µM (inactive); in [5], > 100 µM (inactive); in assay [6], > 100 µM (inactive); in assay [7] it was > 100 µM (inactive); in assay [8] it was > 100 µM (inactive). The GI50 is > 100 µM (inactive) in assay [9]; 39.6 µM (inactive) in assay [10]; > 100 µM (inactive) in [11]; > 100 µM (inactive) in assay [12]; > 100 µM (inactive) in assay [13]; > 100 µM (inactive) in assay [14]. Besides, the GI50 in [15], in assay [18] and in [19] was > 100 µM (inactive) each time.
In the case of `Nc1nc(Cl)cc(NCCCCCCNc2cc(Cl)nc(N)n2)n1`, the GI50 in [1] was > 100 µM (inactive); in [2] it was 27.7 µM (inactive); in assay [3], 78.9 µM; in assay [4], 25.4 µM (inactive); in assay [5], 28.6 µM (inactive); in assay [6] it was > 100 µM (inactive). Further, the GI50 in assay [7] was 48.2 µM (inactive); in assay [9], > 100 µM (inactive); in [10], 27.7 µM (inactive); in assay [11] it was 34 µM (inactive); in [12], > 100 µM (inactive); in [14], > 100 µM (inactive). The GI50 in assay [16], in assay [17], in [18] and in [19] was > 100 µM (inactive) throughout.
As to `Cc1cc2c(c3c1c1ccccc1n3C)C(=O)c1ccccc1C2=O`, the GI50 in assay [1] was > 100 µM (inactive); in assay [3] it was above 100 µM; in [4], 16.9 µM (inactive); in assay [5], 48 µM (inactive); in assay [6] it was > 100 µM (inactive); in [7], 53.6 µM (inactive). Also, the GI50 was > 100 µM (inactive) in assay [8]; > 100 µM (inactive) in assay [9]; 75.3 µM (inactive) in [10]; > 100 µM (inactive) in [11]; > 100 µM (inactive) in [12]; > 100 µM (inactive) in assay [13]. For the same molecule, the GI50 in [14], in assay [15], in [16], in [17], in assay [18] and in assay [19] was > 100 µM (inactive) each time.
